Like-named read-outs stand apart in the source and are kept apart here.
Experiments:
[1] = tested on: cyclooxygenase (CO); assay: Inhibition of cyclooxygenase (CO)
[2] = tested on: Prostaglandin E2; assay: Immune complex-induced synovitis in the dog knee joint: prostaglandin E2 levels; type: in vivo, Mongrel dogs; details: for Prostaglandin E2 Levels: radioimmunoassay; for levels of PGE2 in the synovial fluid (in words): 100 mg/kg orally; for levels of PGE2 in the synovial fluid (in words) / PGE2 levels (in words): dog; for PGE2 levels (in words): i.v. 25 mg/kg or orally
Description: (§1) The accuracy of the puncture was assured by the aspiration of clear, viscous synovial fluid (time 0 sample). The syringe was removed and immune complexes (see below) were injected into the synovial space. The synovial space was re-entered at various time intervals and synovial fluid was withdrawn. The volume of fluid was recorded and then added to 3.0 ml of 0.3% saline. A sample was removed and the number of cells present counted with the use of a hemocytometer and microscope to enumerate the total number of cells in the joint. The remaining sample was centrifuged at 1000×g for 10 minutes and the supernatant analyzed for prostaglandin E2 levels and leukotriene B4 levels.
(§2) To prepare the immune complex, two hundred milligrams of partially purified dog IgG was dissolved in 20 ml 0.9% sterile sodium chloride. The solution was clarified by centrifugation at 2230×G at 20° C. for 10 minutes. A 3 ml volume of the 10.0 mg/ml solution of dog IgG was mixed with 1 ml rabbit anti-dog IgG serum and incubated at room temperature for 20 minutes.
(§3) Four milliliters of saturated ammonium sulfate were added to the mixture to precipitate the complex and all free dog IgG and rabbit gamma globulin. The sample was then centrifuged (as above) and the pellet resuspended in 10 ml 0.9% sterile saline. One ml of this solution was injected into a knee joint.
(§4) Following the intra-articular administration of immune complexes synovial fluid samples were taken at 30 minutes, 1,2,4 and 24 hours, alternating knees for sampling (except at 24 hours when both knees were sampled).
(§5) The articular joint was entered and a zero hour synovial fluid sample was removed. 1 ml of immune complexes was injected into the synovial joint of both legs. […] Synovial fluid samples were taken at 30 minutes, 1, 2 and 4 hours. All samples were analyzed for total granulocyte count using a laser flow cytometer. Prostaglandin and leukotriene concentrations were determined with standard RIA techniques.

[3] = tested on: gastrointestinal; assay: Gastrointestinal side effects in dogs after one week; type: in vivo; details: doses up to 2700 mg/kg
Source text: (§6) All NSAIDs are inhibitors of CO and their potency against this enzyme activity correlates well with clinical doses used in rheumatic diseases. There is also a correlation between CO inhibition (decreased PGE2) and the ability to induce gastric lesions in the fasted rat model. All NSAIDs induce at least some gastrointestinal lesions within their therapeutic range.

[4] = tested on: bronchospasm / LTB4; assay: Arachidonic acid-induced bronchospasm and LTB4 blood levels in anesthetized guinea pigs; type: in vivo; details: administered orally, guinea pigs
Description: Intravenous administration of 10 mg/kg AA to anesthetized guinea pigs pretreated with indomethacin (10 mg/kg) and propranolol (0.1 mg/kg) results in a sustained bronchospasm which is associated with increased blood levels of LTB4. […] In the dog, intraarticular injection of rabbit anti-dog-dog IgG immune complexes into the knee joint results in an acute synovitis characterized by an influx of inflammatory cells into the joint space as well as an increase in synovial fluid levels of PGE2 and LTB4.

[5] = tested on: 5-lipoxygenase (5-LO); assay: Inhibition of 5-lipoxygenase (5-LO)
[6] = tested on: total cells in synovial fluid of dog knee joint; assay: Immune complex-induced synovitis in the dog knee joint: cellular infiltrate; type: in vivo, Mongrel dogs; details: for cellular infiltrate (in words): 100 mg/kg orally; for cellular infiltrate (in words) / total cell number / cellular infiltration (in words): dog; for total cell number / cellular infiltration (in words): i.v. 25 mg/kg or orally
Description: as §1, §2, §3, §4, §5

[7] = tested on: gastrointestinal tract; assay: Ulcerogenicity in rats (gastric lesions, fasted rat model); details: rats
Source text: as §6

[8] = in vivo; details: rat, in vivo
Source text: as §6

[9] = tested on: Lewis strain laboratory rats; assay: In vivo alleviation of inflammation: polyarthritis (adjuvant, Mycobacterium butyricum) in rats, inhibition of paw volume increase; details: Rattus norvegicus, po
[10] = tested on: Leukotriene B4; assay: Immune complex-induced synovitis in the dog knee joint: leukotriene B4 levels; type: in vivo, Mongrel dogs; details: for levels of LTB4 in the synovial fluid (in words): 100 mg/kg orally; for levels of LTB4 in the synovial fluid (in words) / LTB4 levels (in words): dog; for LTB4 levels (in words): i.v. 25 mg/kg or orally
Description: as §1, §2, §3, §4, §5

[11] = tested on: cyclooxygenase (CO); details: cited from earlier work
[12] = tested on: gastrointestinal tract; details: suboptimal antiinflammatory doses; cited from earlier work
[13] = tested on: C-reactive protein; details: rheumatoid arthritis patients; cited from earlier work
[14] = tested on: interleukin-1; details: in vitro and in vivo; cited from earlier work

COc1ccc(-n2nc(CCC(=O)N(C)O)cc2-c2ccc(Cl)cc2)cc1 [Compound 3, 3-[5-(4-Chlorophenyl)-1-(4-methoxyphenyl)-3-pyrazolyl]-N-hydroxy-N-methylpropanamide]
inhibition of cyclooxygenase (CO) (in words) [1]: inhibits both the cyclooxygenase (CO) and 5-lipoxygenase (5-LO) enzymes | Prostaglandin E2 Levels ([2]; 25 mg/kg p.o., 1 Hr): 2.34 ± 1 ng/mL | % I (inhibition) of prostaglandin E2 levels ([2]; 25 mg/kg p.o., 2 Hr): 38.2% | Prostaglandin E2 Levels ([2]; 25 mg/kg p.o., 2 Hr): 2.96 ± 0.92 ng/mL | % I (inhibition) of prostaglandin E2 levels ([2]; 25 mg/kg p.o., 4 Hr): 44.6% | Prostaglandin E2 Levels ([2]; 25 mg/kg p.o., 4 Hr): 2.27 ± 0.76 ng/mL | levels of PGE2 in the synovial fluid (in words) [2]: reduces | Prostaglandin E2 Levels ([2]; 100 mg/kg p.o., 0.5 Hr): 1.8 ± 1.29 ng/mL | Prostaglandin E2 Levels ([2]; 100 mg/kg p.o., 1 Hr): 1.5 ± 1.05 ng/mL | % I (inhibition) of prostaglandin E2 levels ([2]; 100 mg/kg p.o., 2 Hr): 97.9% | Prostaglandin E2 Levels ([2]; 100 mg/kg p.o., 2 Hr): 0.1 ± 0.08 ng/mL | % I (inhibition) of prostaglandin E2 levels ([2]; 100 mg/kg p.o., 4 Hr): 42.4% | Prostaglandin E2 Levels ([2]; 100 mg/kg p.o., 4 Hr): 2.36 ± 0.53 ng/mL | PGE2 levels (in words) [2]: significantly inhibits | significant gastrointestinal side effects (in words) [3]: no significant gastrointestinal side effects | inhibition of leukotriene production (in words) [4]: effective inhibitor of leukotriene production | inhibition of 5-lipoxygenase (5-LO) (in words) [5]: inhibits both the cyclooxygenase (CO) and 5-lipoxygenase (5-LO) enzymes | Cellular Infiltrate Total Cells (× 10^6) ([6]; 25 mg/kg p.o., 0.5 HR): 0.12 ± 0.04 × 10^6 | Cellular Infiltrate Total Cells (× 10^6) ([6]; 25 mg/kg p.o., 1 HR): 0.39 ± 0.19 × 10^6 | % I (inhibition) of total cells ([6]; 25 mg/kg p.o., 2 HR): 7.4% | Cellular Infiltrate Total Cells (× 10^6) ([6]; 25 mg/kg p.o., 2 HR): 5.74 ± 2.5 × 10^6 | % I (inhibition) of total cells ([6]; 25 mg/kg p.o., 4 HR): 6.5% | Cellular Infiltrate Total Cells (× 10^6) ([6]; 25 mg/kg p.o., 4 HR): 46.3 ± 27.9 × 10^6 | cellular infiltrate (in words) [6]: reduces the cellular infiltrate | Cellular Infiltrate Total Cells (× 10^6) ([6]; 100 mg/kg p.o., 0.5 HR): 0.26 ± 0.23 × 10^6 | Cellular Infiltrate Total Cells (× 10^6) ([6]; 100 mg/kg p.o., 1 HR): 0.13 ± 0.07 × 10^6 | % I (inhibition) of total cells ([6]; 100 mg/kg p.o., 2 HR): 78% | Cellular Infiltrate Total Cells (× 10^6) ([6]; 100 mg/kg p.o., 2 HR): 1.35 ± 0.55 × 10^6 | % I (inhibition) of total cells ([6]; 100 mg/kg p.o., 4 HR): 55.2% | Cellular Infiltrate Total Cells (× 10^6) ([6]; 100 mg/kg p.o., 4 HR): 22.2 ± 6.6 × 10^6 | total cell number / cellular infiltration (in words) [6]: significantly inhibits | ulcerogenicity in the gastrointestinal tract (in words) [7]: reduced ulcerogenic activity | ulcerogenicity in the gastrointestinal tract (in words) ([7]; listed as compound 3): lack of ulcerogenicity in the gastrointestinal tract | TD50 [8]: 173 mg/kg | selectivity ratio [8]: 58 | ED50 ([9]; adjuvant rat, read-out: dose which inhibits the inflammatory response of the adjuvant rat by 50 percent (ED50)): 3 mg/kg | ED50 ([9]; rat, read-out: ED50 (effective dose to obtain a 50% inhibition of inflammation)): 4.1 mg/kg | Leukotriene B4 ([10]; 25 mg/kg p.o., 1 Hr): 3.00 ± 1.2 ng/ml Synovial Fluid | Leukotriene B4 ([10]; 25 mg/kg p.o., 2 Hr): 4.60 ± 2.10 ng/ml Synovial Fluid | Leukotriene B4 ([10]; 25 mg/kg p.o., 4 Hr): 1.20 ± 0.6 ng/ml Synovial Fluid | levels of LTB4 in the synovial fluid (in words) [10]: reduces | % I (inhibition) of leukotriene B4 ([10]; 100 mg/kg p.o., 0.5 Hr): 25% | Leukotriene B4 ([10]; 100 mg/kg p.o., 0.5 Hr): 0.93 ± 0.26 ng/ml Synovial Fluid | % I (inhibition) of leukotriene B4 ([10]; 100 mg/kg p.o., 1 Hr): 69% | Leukotriene B4 ([10]; 100 mg/kg p.o., 1 Hr): 0.80 ± 0.09 ng/ml Synovial Fluid | % I (inhibition) of leukotriene B4 ([10]; 100 mg/kg p.o., 2 Hr): 39% | Leukotriene B4 ([10]; 100 mg/kg p.o., 2 Hr): 2.46 ± 0.94 ng/ml Synovial Fluid | % I (inhibition) of leukotriene B4 ([10]; 100 mg/kg p.o., 4 Hr): 37% | Leukotriene B4 ([10]; 100 mg/kg p.o., 4 Hr): 0.88 ± 0.23 ng/ml Synovial Fluid | inhibition of leukotriene production (in words) ([10]; administered orally, dogs): effective inhibitor of leukotriene production | LTB4 levels (in words) [10]: significantly inhibits

COc1ccc2cc([C@H](C)C(=O)O)ccc2c1 [Naproxen, reference compound]
inhibition of cyclooxygenase enzyme by NSAIDs (in words) [11]: only inhibit the cyclooxygenase enzyme | ulcers in rats (in words) [12]: significant ulcers | levels of PGE2 in the synovial fluid (in words) [2]: inhibited | Prostaglandin E2 Levels ([2]; 100 mg/kg p.o., 0.5 Hr): 0.83 ± 0.24 ng/mL | Prostaglandin E2 Levels ([2]; 100 mg/kg p.o., 1 Hr): 1.67 ± 0.73 ng/mL | % I (inhibition) of prostaglandin E2 levels ([2]; 100 mg/kg p.o., 2 Hr): 62.0% | Prostaglandin E2 Levels ([2]; 100 mg/kg p.o., 2 Hr): 1.88 ± 0.86 ng/mL | % I (inhibition) of prostaglandin E2 levels ([2]; 100 mg/kg p.o., 4 Hr): 44.9% | Prostaglandin E2 Levels ([2]; 100 mg/kg p.o., 4 Hr): 2.2 ± 0.97 ng/mL | PGE2 levels (in words) [2]: inhibits PGE 2 levels | cellular infiltrate (in words) [6]: inhibited the cell infiltration | Cellular Infiltrate Total Cells (× 10^6) ([6]; 100 mg/kg p.o., 0.5 HR): 0.32 ± 0.11 × 10^6 | Cellular Infiltrate Total Cells (× 10^6) ([6]; 100 mg/kg p.o., 1 HR): 0.02 ± 0.02 × 10^6 | % I (inhibition) of total cells ([6]; 100 mg/kg p.o., 2 HR): 36.6% | Cellular Infiltrate Total Cells (× 10^6) ([6]; 100 mg/kg p.o., 2 HR): 2.69 ± 0.63 × 10^6 | % I (inhibition) of total cells ([6]; 100 mg/kg p.o., 4 HR): 44.2% | Cellular Infiltrate Total Cells (× 10^6) ([6]; 100 mg/kg p.o., 4 HR): 27.6 ± 24 × 10^6 | total cell number / cellular infiltration (in words) [6]: inhibits | levels of LTB4 in the synovial fluid (in words) [10]: increased the LTB4 levels | % I (inhibition) of leukotriene B4 ([10]; 100 mg/kg p.o., 0.5 Hr): 10.5% | Leukotriene B4 ([10]; 100 mg/kg p.o., 0.5 Hr): 1.11 ± 0.36 ng/ml Synovial Fluid | % I (inhibition) of leukotriene B4 ([10]; 100 mg/kg p.o., 1 Hr): -26.7% | Leukotriene B4 ([10]; 100 mg/kg p.o., 1 Hr): 3.27 ± 1.53 ng/ml Synovial Fluid | % I (inhibition) of leukotriene B4 ([10]; 100 mg/kg p.o., 2 Hr): -47.4% | Leukotriene B4 ([10]; 100 mg/kg p.o., 2 Hr): 5.94 ± 1.33 ng/ml Synovial Fluid | % I (inhibition) of leukotriene B4 ([10]; 100 mg/kg p.o., 4 Hr): -140% | Leukotriene B4 ([10]; 100 mg/kg p.o., 4 Hr): 3.36 ± 1.28 ng/ml Synovial Fluid | LTB4 levels (in words) [10]: does not decrease

NC(=O)N1C(=O)C(=C(O)c2cccs2)c2cc(Cl)ccc21 [CP 66,248]
C-reactive protein levels (in words) [13]: reduction of C-reactive protein levels | inhibition of interleukin-1 levels (in words) [14]: could inhibit interleukin-1 levels in vitro and in vivo

Source: patent US5164381A, “Pharmacologically active 1,5-diaryl-3-substituted pyrazoles and method for synthesizing the same” (Ortho Pharmaceutical Corporation, priority 1991, dated 1992)
